Experimental data published in patent US11845770B2, “Ascaroside derivatives and methods of use” (California Institute of Technology, priority 2019, dated 2023).

Legend:
Format in all cases: in vitro ADME
[1] = biological target: T1, CYP3A4 (Homo sapiens, UniProt P08684); assay: 5 in 1 CYP inhibition assay, CYP3A4; details: microsomes, probe midazolam (1′-hydroxylation), test compound 10 μM, n=2, read-out: inhibition of cytochrome P450 isoform 3A4
T1 construct: from tissue
Method: (§1) CYP450 dependent activities were determined using a marker substrate cocktail. For each reaction, enzyme activities in the presence and absence of test compound (10 μM) were measured in duplicate. A known inhibitor for each isoform, tested at a single concentration (3 μM, n=2), was included as positive control. Incubation mixtures containing microsomes, substrate, and standard inhibitor or test compound were warmed at 37° C. for 10 minutes. Reactions were initiated by addition of the NADPH and incubated for 10 min. [table] After incubation, ice cold acetonitrile was added to terminate the reaction. Generation of metabolites from the substrate reactions was determined by LC-MS/MS.

[2] = Plasma protein binding, HT-Dialysis (human); details: pH 7.4, dialysis 4 hours, read-out: percent unbound
Method: HT-Dialysis plate (Model HTD 96 b, Cat #1006) and the dialysis membrane (molecular weight cut off 12-14 KDa, Cat #1101) can be purchased from HT Dialysis LLC (Gales Ferry, CT).
The plasma was thawed under running cold tap water and centrifuged at 3220×g for 5 min to remove any clots. The pH value was checked and recorded. Only plasma within range of pH 7.0 to pH 8.0 was used. The dialysis membrane was pretreated according to the manufacturer's instructions. Briefly, the dialysis membrane strips were soaked in ultra-pure water at room temperature for approximately 1 hr. After that, each membrane strip that contained 2 membranes was separated and soaked in ethanol:water (20:80 v:v) for approximately 20 min. The membrane was rinsed and soaked for 20 min in ultra-pure water.
Aliquots of 50 μL loading plasma (matrix) containing compound 1 or warfarin in triplicate were transferred to the appropriate wells of a sample collection plate. The samples were matched with dialysis buffer to obtain a final volume of 100 μL with a volume ratio of plasma (matrix):dialysis buffer (1:1, v:v) in each well. […]
The % Unbound, % Bound, % Recovery and % Remaining were calculated using the following equations: % Unbound=100×F/T % Bound=100−% Unbound % Recovery=100×(F+T)/T0 • F=the compound 1 concentration on the receiver side of the membrane/Correction Factor. […]

[3] = Stability in plasma (human); details: after 120 minutes, 37° C.
Method: The pH of plasma was adjusted to 7.4±0.1 if required. 1 mM intermediate solution was prepared by diluting 10 μL of the 10 mM stock solution of 1 with 90 μL DMSO; 1 mM intermediate of positive control propantheline bromide was prepared by diluting 10 μL of the stock solution with 90 μL ultra-pure water. 100 μM dosing solution was prepared by diluting 10 μL of the 1 mM intermediate solution with 90 μL of 45% MeOH/H2O. 98 μL of blank plasma was spiked with 2 μL of the 100 μM dosing solution to achieve a final concentration of 2 μM of the compound in duplicate. Samples were incubated at 37° C. in a water bath. At each time point (0, 10, 30, 60 and 120 min), 400 μL of stop solution (200 ng/mL tolbutamide plus 200 ng/mL labetalol in 50% ACN/MeOH) was added and was mixed thoroughly to precipitate protein. Sample plates were centrifuged at 4,000 rpm for 10 min. An aliquot of supernatant (100 μL) was transferred from each well and was mixed with 200 μL ultra-pure water. The samples were shaken at 800 rpm for about 10 min before LC/MS/MS analysis.
The remaining percentage of compound 1 (test article) after incubation was calculated according to the following equation.

[4] = biological target: T2, CYP2D6 (Homo sapiens, UniProt P10635); assay: 5 in 1 CYP inhibition assay, CYP2D6; details: microsomes, probe dextromethorphan (O-demethylation), test compound 10 μM, n=2, read-out: inhibition of cytochrome P450 isoform 2D6
T2 construct: from tissue
Method: as §1

[5] = biological target: T3, CYP2C19 (Homo sapiens, UniProt P33261); assay: 5 in 1 CYP inhibition assay, CYP2C19; details: microsomes, probe S-mephenytoin (4′-hydroxylation), test compound 10 μM, n=2, read-out: inhibition of cytochrome P450 isoform 2C19
T3 construct: from tissue
Method: as §1

T2 sequence (P10635 whole entry, canonical isoform): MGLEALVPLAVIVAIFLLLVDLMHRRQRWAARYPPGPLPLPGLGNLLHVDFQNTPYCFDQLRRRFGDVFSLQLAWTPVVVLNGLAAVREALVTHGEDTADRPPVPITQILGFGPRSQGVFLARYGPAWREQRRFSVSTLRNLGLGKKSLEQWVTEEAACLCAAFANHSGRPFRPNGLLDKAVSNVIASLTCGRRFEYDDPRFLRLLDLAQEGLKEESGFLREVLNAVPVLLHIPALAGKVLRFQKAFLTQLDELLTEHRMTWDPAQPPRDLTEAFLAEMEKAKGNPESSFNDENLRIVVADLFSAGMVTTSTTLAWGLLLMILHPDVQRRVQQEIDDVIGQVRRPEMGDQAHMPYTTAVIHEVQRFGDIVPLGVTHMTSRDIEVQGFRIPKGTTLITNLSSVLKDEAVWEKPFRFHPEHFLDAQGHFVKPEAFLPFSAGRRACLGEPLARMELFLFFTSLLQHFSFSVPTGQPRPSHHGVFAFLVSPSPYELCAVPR
T1 sequence (P08684 whole entry, canonical isoform): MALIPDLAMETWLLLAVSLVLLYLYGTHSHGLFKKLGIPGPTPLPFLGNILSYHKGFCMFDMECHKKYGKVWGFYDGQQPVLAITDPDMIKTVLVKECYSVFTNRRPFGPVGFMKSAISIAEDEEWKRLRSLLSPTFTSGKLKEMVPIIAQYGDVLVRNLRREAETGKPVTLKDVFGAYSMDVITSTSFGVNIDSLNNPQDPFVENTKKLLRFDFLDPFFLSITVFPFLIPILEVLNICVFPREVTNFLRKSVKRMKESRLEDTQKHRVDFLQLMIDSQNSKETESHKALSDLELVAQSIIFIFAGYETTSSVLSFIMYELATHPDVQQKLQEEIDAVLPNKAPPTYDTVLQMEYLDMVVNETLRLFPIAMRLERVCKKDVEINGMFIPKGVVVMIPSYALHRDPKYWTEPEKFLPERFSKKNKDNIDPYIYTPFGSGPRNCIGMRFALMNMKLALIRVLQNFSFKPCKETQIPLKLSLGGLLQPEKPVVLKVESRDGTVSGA
T3 sequence (P33261 whole entry, canonical isoform): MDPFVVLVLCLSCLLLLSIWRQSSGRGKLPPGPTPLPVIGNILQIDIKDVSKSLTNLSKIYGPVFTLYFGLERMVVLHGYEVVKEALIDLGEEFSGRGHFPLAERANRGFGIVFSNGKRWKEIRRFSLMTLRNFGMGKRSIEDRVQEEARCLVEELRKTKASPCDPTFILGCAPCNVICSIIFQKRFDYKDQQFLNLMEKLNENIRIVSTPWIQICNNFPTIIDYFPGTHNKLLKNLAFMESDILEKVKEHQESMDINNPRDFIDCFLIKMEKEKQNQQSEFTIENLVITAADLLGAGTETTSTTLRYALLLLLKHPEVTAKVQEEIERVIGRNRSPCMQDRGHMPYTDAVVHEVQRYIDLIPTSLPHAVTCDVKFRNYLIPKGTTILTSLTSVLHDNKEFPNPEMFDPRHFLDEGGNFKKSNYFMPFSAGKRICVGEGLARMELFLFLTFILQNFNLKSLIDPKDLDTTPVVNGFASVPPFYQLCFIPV

Row | inhibition at 10 min, 10 µM [1] [%] | fraction unbound at 4 h [2] | remaining percentage after incubation [3] [%] | inhibition at 10 min, 10 µM [4] [%] | inhibition at 10 min, 10 µM [5] [%] | Compound
1 | 1 | 0.329 | 86.5 | 10.1 | 16.2 | C[C@H](CC/C=C/C(=O)OC(C)(C)C)O[C@@H]1O[C@@H](C)[C@H](O)C[C@H]1O [Compound 1, tert-butyl (2E,6R)-6-{[(2R,3R,5R,6S)-3,5-dihydroxy-6-methyloxan-2-yl]oxy}hept-2-enoate]
2 | 0 | 0.868 | 89.8 | 4.6 | 4 | C[C@H](CC/C=C/C(=O)O)O[C@@H]1O[C@@H](C)[C@H](O)C[C@H]1O [ascr #7, reference compound]
